Here are results for 2 molecules from patent publication US8394377B2, “Methods for treating cancer using combination therapy” (The Regents of the University of Colorado, priority 2008, dated 2013).

Assay type in all cases: cell-based
A short description of data set [1]: Percent viability of treated MCF7 cells (flow cytometry). The conditions noted are these: human, 5 mg/ml DCA, 0.1 mg/ml Etomoxir, or both, time point (24 or 48 hrs) not given. As for the experimental part:
(§1) 1. Cell Culture Conditions: The MCF7 and MCF7 ADR cell lines were purchased from American Type Culture Collection, were thawed, and grown in RPMI 1640 medium supplemented with standard supplements, including 10% fetal calf serum, gentamycin, penicillin, streptomycin, sodium pyruvate, HEPES buffer, 1-glutamine, and 2-ME.
(§2) 2. Methods: Cells were plated into a 12 well plate with 4 mis total volume containing approximately 0.6×10^6/well for MCF7 cells and 0.8×10^6/well for MCF7 ADR cells. Treatment groups included no treatment as control; 5 mg/ml Dichloroacetate; 0.1 mg/ml Etomoxir; Both 5 mg/ml DCA and 0.1 mg/ml Etomoxir.
(§3) The cells were incubated at 37° C. in an atmosphere containing 5% CO2 and approximately 92% humidity. The cells were incubated for 24 and 48 hours. At each time point, the cells from that experimental time were harvested and stained for flow cytometric analysis of cell surface expression of HER-2/neu using anti-human HER-2 Fitc. (BD biosciences, Catalogue #340553).
Background: A flow cytometer gives signals particle by particle.

Data set [2] in a line: Percent viability of treated MCF7 ADR cells (flow cytometry). The conditions noted are these: human, 5 mg/ml DCA, 0.1 mg/ml Etomoxir, or both, time point (24 or 48 hrs) not given. As for the experimental part:
as §1, §2, §3

For the next data set, the system named is HER-2 on MCF7 ADR cells. The data set is described as follows: Cell surface HER-2 expression by flow cytometry with FITC anti-human HER-2. As for the experimental part: as §1, §2, §3
Harvested cells were stained using standard fixed staining procedure that called for a 1:5 dilution of Fitc-anti-human HER-2 or isotype control. […] Samples were acquired and analyzed on a Coulter Excel Flow Cytometer. […]
The results in the Figures are expressed in histogram analyses. The Y axis represents cell number of the 5000 live cells versus the X axis which is a reflection of relative Fitc fluorescence. […]

As a reminder, the viability is a per cent measure of how many cells are alive, often set against a control. Low values mean a greater loss of cells, high ones better survival. Regarding `O=C(O)C(Cl)Cl` [DCA, Dichloroacetate], the viability in data set [1] was found to be 42%; in data set [2] it was 58%.
With `CCOC(=O)C1(CCCCCCOc2ccc(Cl)cc2)CO1` (stereo not drawn) [Etomoxir, 2-(6-(4-chlorophenoxy)-hexyl)-oxirane-2-carboxylic acid ethyl ester], the values for the viability in data set [1] and in data set [2] were 78% and 66%, respectively. In addition, in the data set with HER-2 on MCF7 ADR cells (HER-2 lo/negative MCF7-Adr cells, as shown in the figures), the HER-2 expression entry is reported as “major increase”. For the same molecule, the “HER-2 cell surface expression” value with HER-2 on MCF7 ADR cells (MCF7 ADR cells, 48 hours, 0.1 mg/ml Etomoxir) is reported as “noticeable Increase”.
